In patent publication US20250296938A1, “Compounds that Interact with the Ras Superfamily for the Treatment of Cancers, Inflammatory Diseases, Rasopathies, and Fibrotic Disease” (SHY Therapeutics, LLC, priority 2018, published 2025):

System: KRas G12C mutant
Assay: Ras GTP binding domain inhibition assay (Cy3-GTP/Cy5-GTP competition)
Design: species or system human
Conditions: 20 μM; with SOS
In short: (§1)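 His-tagged Ras proteins were captured on nickel-coated wells in Buffer-I (25 mM Tris-HCl pH 7.4, 27 mM KCl, 137 mM NaCl, 1 mM MgCl2, 1 mM DTT) or Buffer-II (50 mM Tris-HCl pH 7.0). Compounds (20 μM or serial dilution, 1% DMSO) were incubated 3 h at RT, ±Sos(556-1049) in the final hour. Bound Cy3-/Cy5-GTP (100 nM, 45 min) was read after washing.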

| SMILES | KRas G12C mutant + SOS: % inh. |
| --- | --- |
| CC(C)NC(=O)c1nc(-c2nccn2C)nc(O)c1O [drawing 830] | B (26-50% inhibition) |
| O=C(c1nc(-c2ccccn2)nc(O)c1O)N1CCCC1 [drawing 831] | A (1-25% inhibition) |
| O=C(c1nc(-c2ccccn2)nc(O)c1O)N1CCc2ccccc2C1 [drawing 832] | B (26-50% inhibition) |
| Oc1nc(-c2ncc3n2CCCC3)nc2c(-c3ccccn3)csc12 [drawing 833] | C (51-75% inhibition) |
| Oc1nc(-c2ncc3ccccn23)nc2c(-c3ccccn3)csc12 [drawing 834] | C (51-75% inhibition) |
| COc1cccc(-c2sc3nc(-c4nccn4C)nc(N4CCC(OC)C4)c3c2-c2ccccc2)c1F.Cl (stereo not shown) [drawing 838] | D (76-100% inhibition) |
| COc1ccc(Cn2cnc(-c3nc(O)c4scc(-c5ccccn5)c4n3)c2)cc1 [drawing 839] | A (1-25% inhibition) |
| Cc1cc(Cn2ccnc2-c2nc(O)c3scc(-c4ccccn4)c3n2)on1 [drawing 846] | C (51-75% inhibition) |

Same assay, conditions: 20 μM; without SOS

| SMILES | KRas G12C mutant: % inh. |
| --- | --- |
| CC(C)NC(=O)c1nc(-c2nccn2C)nc(O)c1O [drawing 830] | C (51-75% inhibition) |
| O=C(c1nc(-c2ccccn2)nc(O)c1O)N1CCCC1 [drawing 831] | B (26-50% inhibition) |
| O=C(c1nc(-c2ccccn2)nc(O)c1O)N1CCc2ccccc2C1 [drawing 832] | C (51-75% inhibition) |
| Oc1nc(-c2ncc3n2CCCC3)nc2c(-c3ccccn3)csc12 [drawing 833] | D (76-100% inhibition) |
| Oc1nc(-c2ncc3ccccn23)nc2c(-c3ccccn3)csc12 [drawing 834] | C (51-75% inhibition) |
| COc1cccc(-c2sc3nc(-c4nccn4C)nc(N4CCC(OC)C4)c3c2-c2ccccc2)c1F.Cl (stereo not shown) [drawing 838] | B (26-50% inhibition) |
| COc1ccc(Cn2cnc(-c3nc(O)c4scc(-c5ccccn5)c4n3)c2)cc1 [drawing 839] | B (26-50% inhibition) |
| Cc1cc(Cn2ccnc2-c2nc(O)c3scc(-c4ccccn4)c3n2)on1 [drawing 846] | B (26-50% inhibition) |

System: KRas Q61H mutant
Assay: as above
Design: species or system human
Conditions: 20 μM; with SOS
In short: as §1

| SMILES | KRas Q61H mutant + SOS: % inh. |
| --- | --- |
| CC(C)NC(=O)c1nc(-c2nccn2C)nc(O)c1O [drawing 830] | C (51-75% inhibition) |
| O=C(c1nc(-c2ccccn2)nc(O)c1O)N1CCCC1 [drawing 831] | B (26-50% inhibition) |
| O=C(c1nc(-c2ccccn2)nc(O)c1O)N1CCc2ccccc2C1 [drawing 832] | B (26-50% inhibition) |
| Oc1nc(-c2ncc3n2CCCC3)nc2c(-c3ccccn3)csc12 [drawing 833] | C (51-75% inhibition) |
| Oc1nc(-c2ncc3ccccn23)nc2c(-c3ccccn3)csc12 [drawing 834] | C (51-75% inhibition) |
| COc1cccc(-c2sc3nc(-c4nccn4C)nc(N4CCC(OC)C4)c3c2-c2ccccc2)c1F.Cl (stereo not shown) [drawing 838] | D (76-100% inhibition) |
| COc1ccc(Cn2cnc(-c3nc(O)c4scc(-c5ccccn5)c4n3)c2)cc1 [drawing 839] | A (1-25% inhibition) |
| Cc1cc(Cn2ccnc2-c2nc(O)c3scc(-c4ccccn4)c3n2)on1 [drawing 846] | C (51-75% inhibition) |

Same assay, conditions: 20 μM; without SOS

| SMILES | KRas Q61H mutant: % inh. |
| --- | --- |
| CC(C)NC(=O)c1nc(-c2nccn2C)nc(O)c1O [drawing 830] | C (51-75% inhibition) |
| O=C(c1nc(-c2ccccn2)nc(O)c1O)N1CCCC1 [drawing 831] | B (26-50% inhibition) |
| O=C(c1nc(-c2ccccn2)nc(O)c1O)N1CCc2ccccc2C1 [drawing 832] | C (51-75% inhibition) |
| Oc1nc(-c2ncc3n2CCCC3)nc2c(-c3ccccn3)csc12 [drawing 833] | C (51-75% inhibition) |
| Oc1nc(-c2ncc3ccccn23)nc2c(-c3ccccn3)csc12 [drawing 834] | C (51-75% inhibition) |
| COc1cccc(-c2sc3nc(-c4nccn4C)nc(N4CCC(OC)C4)c3c2-c2ccccc2)c1F.Cl (stereo not shown) [drawing 838] | B (26-50% inhibition) |
| COc1ccc(Cn2cnc(-c3nc(O)c4scc(-c5ccccn5)c4n3)c2)cc1 [drawing 839] | B (26-50% inhibition) |
| Cc1cc(Cn2ccnc2-c2nc(O)c3scc(-c4ccccn4)c3n2)on1 [drawing 846] | B (26-50% inhibition) |

System: KRas wild type
Assay: as above
Design: species or system human
Conditions: 20 μM; with SOS
In short: as §1

| SMILES | KRas wild type + SOS: % inh. |
| --- | --- |
| CC(C)NC(=O)c1nc(-c2nccn2C)nc(O)c1O [drawing 830] | B (26-50% inhibition) |
| O=C(c1nc(-c2ccccn2)nc(O)c1O)N1CCCC1 [drawing 831] | A (1-25% inhibition) |
| O=C(c1nc(-c2ccccn2)nc(O)c1O)N1CCc2ccccc2C1 [drawing 832] | B (26-50% inhibition) |
| Oc1nc(-c2ncc3n2CCCC3)nc2c(-c3ccccn3)csc12 [drawing 833] | B (26-50% inhibition) |
| Oc1nc(-c2ncc3ccccn23)nc2c(-c3ccccn3)csc12 [drawing 834] | C (51-75% inhibition) |
| COc1cccc(-c2sc3nc(-c4nccn4C)nc(N4CCC(OC)C4)c3c2-c2ccccc2)c1F.Cl (stereo not shown) [drawing 838] | D (76-100% inhibition) |
| COc1ccc(Cn2cnc(-c3nc(O)c4scc(-c5ccccn5)c4n3)c2)cc1 [drawing 839] | A (1-25% inhibition) |
| Cc1cc(Cn2ccnc2-c2nc(O)c3scc(-c4ccccn4)c3n2)on1 [drawing 846] | B (26-50% inhibition) |

Same assay, conditions: 20 μM; without SOS

| SMILES | KRas wild type: % inh. |
| --- | --- |
| CC(C)NC(=O)c1nc(-c2nccn2C)nc(O)c1O [drawing 830] | C (51-75% inhibition) |
| O=C(c1nc(-c2ccccn2)nc(O)c1O)N1CCCC1 [drawing 831] | C (51-75% inhibition) |
| O=C(c1nc(-c2ccccn2)nc(O)c1O)N1CCc2ccccc2C1 [drawing 832] | C (51-75% inhibition) |
| Oc1nc(-c2ncc3n2CCCC3)nc2c(-c3ccccn3)csc12 [drawing 833] | C (51-75% inhibition) |
| Oc1nc(-c2ncc3ccccn23)nc2c(-c3ccccn3)csc12 [drawing 834] | C (51-75% inhibition) |
| COc1cccc(-c2sc3nc(-c4nccn4C)nc(N4CCC(OC)C4)c3c2-c2ccccc2)c1F.Cl (stereo not shown) [drawing 838] | C (51-75% inhibition) |
| COc1ccc(Cn2cnc(-c3nc(O)c4scc(-c5ccccn5)c4n3)c2)cc1 [drawing 839] | A (1-25% inhibition) |
| Cc1cc(Cn2ccnc2-c2nc(O)c3scc(-c4ccccn4)c3n2)on1 [drawing 846] | C (51-75% inhibition) |

Target: T1, KRas G12D mutant (Homo sapiens, UniProt P01116, G12D)
T1 construct: fused on or other part: His tag, used for capture on nickel-coated plates
Assay: as above
Conditions: 20 μM; with SOS; read-out: KRas G-12D mutant + SOS: % inh.
In short: as §1

| SMILES | inhibition at 20 µM [%] |
| --- | --- |
| CC(C)NC(=O)c1nc(-c2nccn2C)nc(O)c1O [drawing 830] | 26 to 50 |
| O=C(c1nc(-c2ccccn2)nc(O)c1O)N1CCCC1 [drawing 831] | 1 to 25 |
| O=C(c1nc(-c2ccccn2)nc(O)c1O)N1CCc2ccccc2C1 [drawing 832] | 26 to 50 |
| Oc1nc(-c2ncc3n2CCCC3)nc2c(-c3ccccn3)csc12 [drawing 833] | 51 to 75 |
| Oc1nc(-c2ncc3ccccn23)nc2c(-c3ccccn3)csc12 [drawing 834] | 51 to 75 |
| COc1cccc(-c2sc3nc(-c4nccn4C)nc(N4CCC(OC)C4)c3c2-c2ccccc2)c1F.Cl (stereo not shown) [drawing 838] | 51 to 75 |
| COc1ccc(Cn2cnc(-c3nc(O)c4scc(-c5ccccn5)c4n3)c2)cc1 [drawing 839] | 0 |
| Cc1cc(Cn2ccnc2-c2nc(O)c3scc(-c4ccccn4)c3n2)on1 [drawing 846] | 26 to 50 |

Same assay, conditions: 20 μM; without SOS; read-out: KRas G12D mutant: % inh.

| SMILES | inhibition at 20 µM [%] |
| --- | --- |
| CC(C)NC(=O)c1nc(-c2nccn2C)nc(O)c1O [drawing 830] | 51 to 75 |
| O=C(c1nc(-c2ccccn2)nc(O)c1O)N1CCCC1 [drawing 831] | 51 to 75 |
| O=C(c1nc(-c2ccccn2)nc(O)c1O)N1CCc2ccccc2C1 [drawing 832] | 51 to 75 |
| Oc1nc(-c2ncc3n2CCCC3)nc2c(-c3ccccn3)csc12 [drawing 833] | 51 to 75 |
| Oc1nc(-c2ncc3ccccn23)nc2c(-c3ccccn3)csc12 [drawing 834] | 76 to 100 |
| COc1cccc(-c2sc3nc(-c4nccn4C)nc(N4CCC(OC)C4)c3c2-c2ccccc2)c1F.Cl (stereo not shown) [drawing 838] | 51 to 75 |
| COc1ccc(Cn2cnc(-c3nc(O)c4scc(-c5ccccn5)c4n3)c2)cc1 [drawing 839] | 1 to 25 |
| Cc1cc(Cn2ccnc2-c2nc(O)c3scc(-c4ccccn4)c3n2)on1 [drawing 846] | 51 to 75 |
